Here are results for 30 molecules from patent US9120770B2, “Substituted pyridine and pyrazine compounds as PDE4 inhibitors” (DART NEUROSCIENCE (CAYMAN) LTD., priority 2013, dated 2015).

As usually defined, the EC50 is the concentration at which the effect is half-maximal. Read a low EC50 as higher potency in that assay.

PDE4D3, sequence (Q08499 1-673 isoform Q08499-2): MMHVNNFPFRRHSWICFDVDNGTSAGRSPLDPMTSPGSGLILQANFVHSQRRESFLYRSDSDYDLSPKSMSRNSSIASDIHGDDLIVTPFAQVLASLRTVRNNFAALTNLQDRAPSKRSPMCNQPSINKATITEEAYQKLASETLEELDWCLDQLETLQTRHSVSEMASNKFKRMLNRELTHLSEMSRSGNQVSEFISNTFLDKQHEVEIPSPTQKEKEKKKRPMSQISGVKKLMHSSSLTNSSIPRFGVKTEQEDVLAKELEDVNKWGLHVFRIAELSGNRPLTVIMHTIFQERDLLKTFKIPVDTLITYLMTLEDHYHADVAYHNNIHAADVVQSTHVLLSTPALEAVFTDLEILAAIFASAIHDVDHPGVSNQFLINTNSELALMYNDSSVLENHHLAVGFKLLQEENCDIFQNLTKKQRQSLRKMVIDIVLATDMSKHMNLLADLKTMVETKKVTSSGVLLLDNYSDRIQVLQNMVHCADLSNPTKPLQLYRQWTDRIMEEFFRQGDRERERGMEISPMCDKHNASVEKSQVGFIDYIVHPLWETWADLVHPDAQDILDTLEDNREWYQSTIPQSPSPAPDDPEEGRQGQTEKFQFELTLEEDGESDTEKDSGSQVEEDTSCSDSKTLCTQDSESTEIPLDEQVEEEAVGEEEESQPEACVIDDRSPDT

The test addresses PDE4D3 (Homo sapiens, UniProt Q08499).
As for `CCOc1ncc(Cn2ncc(Cl)c2CO)cc1-c1cccc(Cl)c1` [Example 278, (4-Chloro-1-{[5-(3-chlorophenyl)-6-ethoxypyridin-3-yl]methyl}-1H-pyrazol-5-yl)methanol], the EC50 is 0.1 to 1 µM.

Consider `COc1ncc(Cc2ccc(C(N)=O)nc2)cc1-c1cccc(Cl)c1` [Example 116, 5-{[5-(3-Chlorophenyl)-6-methoxypyridin-3-yl]methyl}pyridine-2-carboxamide], for which the half-maximal effective concentration (EC50) was 0.1 to 1 µM.

Take `COc1ncc(Cc2ccc(C(=O)O)cc2)cc1-c1cccc(Cl)c1` [Example 21, 4-{[5-(3-Chlorophenyl)-6-methoxypyridin-3-yl]methyl}benzoic acid]: the EC50 was 0.1 to 1 µM. `COc1ncnn1Cc1cnc(OC(F)F)c(-c2cccc(Cl)c2)c1` [Example 215, 3-(3-Chlorophenyl)-2-(difluoromethoxy)-5-[(5-methoxy-1H-1,2,4-triazol-1-yl)methyl]pyridine] returned an EC50 of 1 to 10 µM. Molecule `COc1ncc(Cn2cncn2)cc1-c1ccncc1` [Example 171, 2-Methoxy-3-(pyridin-4-yl)-5-(1H-1,2,4-triazol-1-ylmethyl)pyridine] returned an EC50 of 0.1 to 1 µM. Under `COc1ncc(Cn2ncnc2CO)nc1-c1cccc(Cl)c1` [Example 210, (1-{[6-(3-Chlorophenyl)-5-methoxypyrazin-2-yl]methyl}-1H-1,2,4-triazol-5-yl)methanol] stands 1 to 10 µM. Turning to `CCOc1ncc(Cc2cnc(C(N)=O)nc2)nc1-c1cccc(OC(F)F)c1` [Example 13, 5-({6-[3-(Difluoromethoxy)phenyl]-5-ethoxypyrazin-2-yl}methyl)pyrimidine-2-carboxamide], the EC50 is below 0.1 µM. The molecule `COc1ncc(Cn2cnc(N)n2)cc1-c1cccc(C#N)c1` [Example 223, 3-{5-[(3-Amino-1H-1,2,4-triazol-1-yl)methyl]-2-methoxypyridin-3-yl}benzonitrile] displayed a concentration for a half-maximal effect (EC50) of 0.1 to 1 µM.

With `COc1cccc(-c2cc(Cc3cnc(C(N)=O)nc3)cnc2OC(F)F)c1` [Example 115, 5-{[6-(Difluoromethoxy)-5-(3-methoxyphenyl)pyridin-3-yl]methyl}pyrimidine-2-carboxamide], the EC50 fell in the range of 0.1 to 1 µM. The molecule `CCOc1ncc(Cc2ccc(C(N)=O)nc2)nc1-c1cccc(OC(F)F)c1` [Example 124, 5-({6-[3-(Difluoromethoxy)phenyl]-5-ethoxypyrazin-2-yl}methyl)pyridine-2-carboxamide] yielded an EC50 below 0.1 µM. For the molecule `COc1ncc(Cc2cnc(C(N)=O)nc2)cc1-c1cccc(Cl)c1` [Example 24, 5-{[5-(3-Chlorophenyl)-6-methoxypyridin-3-yl]methyl}pyrimidine-2-carboxamide], the concentration giving a half-maximal response (EC50) was 0.1 to 1 µM. In turn, `Nc1ccc(Cc2cnc(OC(F)F)c(-c3cccc(Cl)c3)c2)cn1` [Example 33, 5-{[5-(3-Chlorophenyl)-6-(difluoromethoxy)pyridin-3-yl]methyl}pyridin-2-amine] gave a half-maximal effective concentration (EC50) below 0.1 µM.

In the case of `Cc1cccc(-c2cc(Cn3cncn3)cnc2OC(F)F)c1` [Example 12, 2-(Difluoromethoxy)-3-(3-methylphenyl)-5-(1H-1,2,4-triazol-1-ylmethyl)pyridine], the EC50 lay within 0.1 to 1 µM. Under `COc1ncc(Cn2cc(C)cn2)nc1-c1cccc(Cl)c1` [Example 184, 3-(3-Chlorophenyl)-2-methoxy-5-[(4-methyl-1H-pyrazol-1-yl)methyl]pyrazine] stands 1 to 10 µM. The molecule `COc1ncc(Cc2cnc(OC)c(-c3cccc(Cl)c3)c2)cn1` [Example 76, 5-{[5-(3-Chlorophenyl)-6-methoxypyridin-3-yl]methyl}-2-methoxypyrimidine] registered an EC50 below 0.1 µM. In the case of `Cc1noc(C)c1Cc1cnc(OC(F)F)c(-c2cccc(Cl)c2)c1` [Example 99, 3-(3-Chlorophenyl)-2-(difluoromethoxy)-5-[(dimethyl-1,2-oxazol-4-yl)methyl]pyridine] it was 1 to 10 µM; in that of `COc1ncc(Cn2cccn2)cc1-c1cccc(Cl)c1` [Example 145, 3-(3-Chlorophenyl)-2-methoxy-5-(1H-pyrazol-1-ylmethyl)pyridine], below 0.1 µM.

Regarding `COc1ncc(C(F)c2ccc(F)cc2)cc1-c1cccc(Cl)c1` (stereo not drawn) [Example 20, 3-(3-Chlorophenyl)-5-[fluoro(4-fluorophenyl)methyl]-2-methoxypyridine], the EC50 was 0.1 to 1 µM. With `CCOc1ncc(Cn2cnc([N+](=O)[O-])n2)nc1-c1cccc(OC(F)F)c1` [Example 193, 3-(3-(Difluoromethoxy)phenyl)-2-ethoxy-5-((3-nitro-1H-1,2,4-triazol-1-yl)methyl)pyrazine], the EC50 fell in the range of 1 to 10 µM.

Take `Nc1ncc(Cc2cnc(OC(F)F)c(-c3cccc(OC4COC4)c3)c2)cn1` [Example 43, 5-{[6-(Difluoromethoxy)-5-[3-(oxetan-3-yloxy)phenyl]pyridin-3-yl]methyl}pyrimidin-2-amine]: the concentration for a half-maximal effect (EC50) is 0.1 to 1 µM. With `CCOc1ncc(Cn2cnc(COC)n2)cc1-c1cccc(OC(F)F)c1` [Example 165, 3-[3-(Difluoromethoxy)phenyl]-2-ethoxy-5-{[3-(methoxymethyl)-1H-1,2,4-triazol-1-yl]methyl}pyridine], the EC50 is below 0.1 µM.

Molecule `COc1ncc(Cn2cnc(CO)n2)cc1-c1ccnc(OC(F)F)c1` [Example 205, [1-({5-[2-(Difluoromethoxy)pyridin-4-yl]-6-methoxypyridin-3-yl}methyl)-1H-1,2,4-triazol-3-yl]methanol] came in with an EC50 below 0.1 µM. Under `CCOc1ncc(Cc2cnc(C(N)=O)nc2)cc1-c1ccnc(OC(F)F)c1` [Example 122, 5-({5-[2-(Difluoromethoxy)pyridin-4-yl]-6-ethoxypyridin-3-yl}methyl)pyrimidine-2-carboxamide] stands below 0.1 µM; under `NC(=O)c1ccc(Cc2cnc(OC(F)F)c(-c3cccc(Cl)c3)c2)cn1` [Example 114, 5-{[5-(3-Chlorophenyl)-6-(difluoromethoxy)pyridin-3-yl]methyl}pyridine-2-carboxamide], 0.1 to 1 µM. Take `COc1ncc(Cc2cnc(C(=O)O)nc2)cc1-c1cccc(Cl)c1` [Example 23, 5-{[5-(3-Chlorophenyl)-6-methoxypyridin-3-yl]methyl}pyrimidine-2-carboxylic acid]: the 50% effective concentration (EC50) is 1 to 10 µM. Under `COc1ncc(Cc2ccccc2CO)cc1-c1cccc(Cl)c1` [Example 37, (2-{[5-(3-Chlorophenyl)-6-methoxypyridin-3-yl]methyl}phenyl)methanol] stands 0.1 to 1 µM; under `Cc1nc(C)c(Cc2cnc(OC(F)F)c(-c3cccc(Cl)c3)c2)s1` [Example 69, 3-(3-Chlorophenyl)-2-(difluoromethoxy)-5-[(dimethyl-1,3-thiazol-5-yl)methyl]pyridine], below 0.1 µM. In the case of `CCOc1ncc(Cn2cc(CO)nn2)nc1-c1cccc(Cl)c1` [Example 268, (1-{[6-(3-Chlorophenyl)-5-ethoxypyrazin-2-yl]methyl}-1H-1,2,3-triazol-4-yl)methanol] it was 0.1 to 1 µM; in that of `COc1ncc(Cc2cn[nH]c2)cc1-c1cccc(Cl)c1` [Example 80, 3-(3-Chlorophenyl)-2-methoxy-5-(1H-pyrazol-4-ylmethyl)pyridine], below 0.1 µM; in that of `COc1ncc(Cc2cnc(C(N)=O)nc2)cc1-c1cccc(F)c1` [Example 118, 5-{[5-(3-Fluorophenyl)-6-methoxypyridin-3-yl]methyl}pyrimidine-2-carboxamide], 0.1 to 1 µM.
